Source: patent US12570650B2, “6-substituted pyridazine compounds as SMARCA2 and/or SMARCA4 degraders” (Aurigene Oncology Limited, priority 2020, dated 2026)

Assays:
Format in all cases: cell-based
SK-MEL-5 cells = experiment: Anti proliferative activity, Cell Titer Glo assay, SK-MEL-5; settings: Homo sapiens, SK-MEL-5, SK-MEL-5 cells, retreatment Day 4, terminated day 8, CellTiter-Glo
Procedure: (§1) Example-P3: Determination of Anti Proliferative Activity of Compounds by Cell Titer Glo®(Promega) Assay
(§2) Cells were seeded into 96-well plates and the plate was incubated in 37 degrees incubator overnight. The next day, compounds were diluted 3-fold to cover 9-point concentration range in DMSO. Intermediate plate dilution was prepared in media followed with compound treatment in cells. Retreatment of cells with compound dilutions was performed on Day 4 and assay was terminated on day 8 for SK-MEL-5 cells using CellTiter-Glo and the plate was kept on orbital shaker for 20 minutes at RT. Assay was terminated on day 6 for RERF-LC-A1 without a compound retreatment. Luminescence signal was recorded on VICTOR^3 instrument. Percent inhibition of proliferation was calculated at each concentration and plotted against the compound concentration. EC50 value was calculated using GraphPad software.

RERF-LC-A1 cell line = experiment: Anti proliferative activity, Cell Titer Glo assay, RERF-LC-A1; settings: 144 h; RERF-LC-A1 cells, terminated day 6 without retreatment, CellTiter-Glo
Procedure: as §1, §2
Herein the group “++” refers to EC50 (RERF-LC-A1) values lower than 100 nM and “+” refers to EC50 (RERF-LC-A1) values greater than 100 nM.

SMARCA2 = target: T1, SMARCA2 (Homo sapiens, UniProt P51531); experiment: SMARCA2 degradation in VCaP cells by Western blot; settings: 16 hours
T1 construct: Determination of SMARCA2 and SMARCA4 Degradation in VCaP Cells by Western Blot; endogenous in cells; host or cells: VCaP (ATCC CRL-2876)
T1 sequence (P51531 whole entry): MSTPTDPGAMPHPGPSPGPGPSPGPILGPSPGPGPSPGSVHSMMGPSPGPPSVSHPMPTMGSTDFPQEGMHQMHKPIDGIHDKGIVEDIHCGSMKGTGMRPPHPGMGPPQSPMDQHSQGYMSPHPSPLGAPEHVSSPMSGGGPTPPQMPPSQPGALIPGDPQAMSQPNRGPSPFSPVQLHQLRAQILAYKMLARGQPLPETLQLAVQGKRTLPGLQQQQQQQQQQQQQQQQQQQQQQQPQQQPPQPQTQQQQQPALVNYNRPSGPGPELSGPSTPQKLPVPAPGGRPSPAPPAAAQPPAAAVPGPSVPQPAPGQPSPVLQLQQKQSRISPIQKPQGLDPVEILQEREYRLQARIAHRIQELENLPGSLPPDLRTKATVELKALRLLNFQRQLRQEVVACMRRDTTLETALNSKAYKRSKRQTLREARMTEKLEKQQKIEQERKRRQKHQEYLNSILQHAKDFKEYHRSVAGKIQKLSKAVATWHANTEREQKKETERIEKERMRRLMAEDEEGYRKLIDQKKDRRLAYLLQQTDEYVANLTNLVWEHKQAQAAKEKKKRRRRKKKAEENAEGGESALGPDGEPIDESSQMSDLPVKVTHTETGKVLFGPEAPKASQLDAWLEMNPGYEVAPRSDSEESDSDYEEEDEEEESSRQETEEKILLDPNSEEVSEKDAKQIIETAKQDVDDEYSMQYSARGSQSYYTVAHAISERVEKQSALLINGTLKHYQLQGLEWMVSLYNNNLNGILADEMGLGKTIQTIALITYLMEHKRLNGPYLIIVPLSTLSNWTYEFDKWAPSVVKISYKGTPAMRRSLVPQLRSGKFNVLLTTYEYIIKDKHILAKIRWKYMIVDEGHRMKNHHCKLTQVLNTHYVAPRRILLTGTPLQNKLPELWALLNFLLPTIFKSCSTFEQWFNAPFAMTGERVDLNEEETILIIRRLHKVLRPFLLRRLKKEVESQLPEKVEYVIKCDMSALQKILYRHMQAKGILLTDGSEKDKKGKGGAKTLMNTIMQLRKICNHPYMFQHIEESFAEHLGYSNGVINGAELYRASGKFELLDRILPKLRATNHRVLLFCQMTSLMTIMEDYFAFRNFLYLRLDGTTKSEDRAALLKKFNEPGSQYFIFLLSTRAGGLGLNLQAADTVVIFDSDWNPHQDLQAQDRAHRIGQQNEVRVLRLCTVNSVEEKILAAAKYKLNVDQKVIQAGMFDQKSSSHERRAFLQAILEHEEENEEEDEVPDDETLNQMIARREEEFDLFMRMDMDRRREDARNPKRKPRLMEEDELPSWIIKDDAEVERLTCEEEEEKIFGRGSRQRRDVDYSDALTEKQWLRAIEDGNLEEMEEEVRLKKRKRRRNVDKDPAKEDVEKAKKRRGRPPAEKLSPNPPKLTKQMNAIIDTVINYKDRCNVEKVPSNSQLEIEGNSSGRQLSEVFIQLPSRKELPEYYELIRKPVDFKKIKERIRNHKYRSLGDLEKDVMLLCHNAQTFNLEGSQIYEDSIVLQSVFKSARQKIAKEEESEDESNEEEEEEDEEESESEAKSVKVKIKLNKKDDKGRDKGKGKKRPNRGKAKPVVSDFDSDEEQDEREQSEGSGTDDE
Procedure: Example-P2: Determination of SMARCA2 and SMARCA4 Degradation in VCaP Cells by Western Blot
VCaP (ATCC CRL-2876) was plated in 6 well plates using complete Dulbecco's Modified Eagle's Medium. On the third day, compounds of present invention were added to cells from 10 mM stocks made in DMSO (Sigma Cat no. D2650). Each concentration of compound was tested with DMSO not exceeding final percentage of 0.3 in the cells. Cells were incubated with the compound for 16 hours followed by harvesting with 1×RIPA lysis buffer (Thermo Fischer, catalogue number #89900) containing protease inhibitor cocktail (Sigma catalogue number #P-8340). Equal amount of protein was loaded on SDS PAGE gel for electrophoresis. Western blot was carried out for detection of either SMARCA2 (Cell signalling technologies, catalogue number #11966) or SMARCA4 antibody (Cell signalling technologies, catalogue number #52251). Beta-Tubulin antibody (Cell signalling technologies, catalogue number #86298) was used as loading control. Percentage of SMARCA2 or SMARCA4 degradation was calculated using formula % Degradation=100−(normalized band intensity in treated sample/normalized band intensity in DMSO sample)*100.

SMARCA4 = target: T2, SMARCA4 (Homo sapiens, UniProt P51532); experiment: SMARCA4 degradation in VCaP cells by Western blot; settings: 16 hours
T2 construct: Determination of SMARCA2 and SMARCA4 Degradation in VCaP Cells by Western Blot; endogenous in cells; host or cells: VCaP (ATCC CRL-2876)
T2 sequence (P51532 whole entry): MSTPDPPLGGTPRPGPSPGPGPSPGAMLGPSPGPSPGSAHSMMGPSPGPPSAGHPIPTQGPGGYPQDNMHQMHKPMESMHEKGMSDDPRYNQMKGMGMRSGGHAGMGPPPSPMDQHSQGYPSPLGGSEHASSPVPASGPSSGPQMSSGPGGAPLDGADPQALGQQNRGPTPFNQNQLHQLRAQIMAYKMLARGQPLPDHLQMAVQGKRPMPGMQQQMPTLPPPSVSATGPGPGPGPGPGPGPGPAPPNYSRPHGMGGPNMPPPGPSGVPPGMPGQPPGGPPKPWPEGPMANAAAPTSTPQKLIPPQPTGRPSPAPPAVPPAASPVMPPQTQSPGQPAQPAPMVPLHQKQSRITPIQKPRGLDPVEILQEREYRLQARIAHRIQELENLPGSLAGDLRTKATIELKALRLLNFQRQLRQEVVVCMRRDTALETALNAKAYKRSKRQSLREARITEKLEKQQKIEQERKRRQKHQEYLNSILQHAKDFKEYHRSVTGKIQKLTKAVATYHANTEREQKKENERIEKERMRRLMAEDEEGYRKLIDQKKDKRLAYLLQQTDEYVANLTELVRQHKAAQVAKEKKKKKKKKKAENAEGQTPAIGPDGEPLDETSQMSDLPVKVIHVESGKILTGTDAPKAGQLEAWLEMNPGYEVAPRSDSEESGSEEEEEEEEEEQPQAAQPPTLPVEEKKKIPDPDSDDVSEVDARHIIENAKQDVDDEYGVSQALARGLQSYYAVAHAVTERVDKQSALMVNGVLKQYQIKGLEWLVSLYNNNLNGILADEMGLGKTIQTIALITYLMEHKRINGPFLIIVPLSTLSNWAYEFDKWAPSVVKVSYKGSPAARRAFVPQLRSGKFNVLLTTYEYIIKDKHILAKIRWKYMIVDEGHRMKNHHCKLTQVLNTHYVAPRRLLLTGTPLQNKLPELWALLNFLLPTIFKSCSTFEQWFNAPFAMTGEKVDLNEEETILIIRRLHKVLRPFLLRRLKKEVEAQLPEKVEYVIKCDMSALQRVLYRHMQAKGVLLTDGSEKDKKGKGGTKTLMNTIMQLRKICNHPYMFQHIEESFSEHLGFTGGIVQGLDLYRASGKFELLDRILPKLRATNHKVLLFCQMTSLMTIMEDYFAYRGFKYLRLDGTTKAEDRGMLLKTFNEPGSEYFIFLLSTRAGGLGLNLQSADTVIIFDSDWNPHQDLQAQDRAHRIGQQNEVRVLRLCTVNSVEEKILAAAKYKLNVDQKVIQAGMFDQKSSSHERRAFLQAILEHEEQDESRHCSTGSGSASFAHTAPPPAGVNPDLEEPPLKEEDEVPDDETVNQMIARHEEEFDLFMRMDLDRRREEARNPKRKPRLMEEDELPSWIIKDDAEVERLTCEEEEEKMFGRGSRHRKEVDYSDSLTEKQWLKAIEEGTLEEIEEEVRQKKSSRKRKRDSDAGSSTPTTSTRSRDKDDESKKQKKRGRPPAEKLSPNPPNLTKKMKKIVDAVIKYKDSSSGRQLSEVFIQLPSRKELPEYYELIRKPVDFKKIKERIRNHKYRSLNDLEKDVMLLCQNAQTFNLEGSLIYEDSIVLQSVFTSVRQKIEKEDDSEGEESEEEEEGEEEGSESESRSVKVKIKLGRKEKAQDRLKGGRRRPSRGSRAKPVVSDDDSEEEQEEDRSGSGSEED
Procedure: On the third day, compounds of present invention were added to cells from 10 mM stocks made in DMSO (Sigma Cat no. D2650). Each concentration of compound was tested with DMSO not exceeding final percentage of 0.3 in the cells. […] Equal amount of protein was loaded on SDS PAGE gel for electrophoresis. […] Percentage of SMARCA2 or SMARCA4 degradation was calculated using formula % Degradation=100−(normalized band intensity in treated sample/normalized band intensity in DMSO sample)*100.

| Compound | EC50 (SK-MEL-5 cells) [nM] | Percent degradation (at 100 nM) SMARCA2 (SMARCA2) [%] | Percent degradation (at 100 nM) SMARCA4 (SMARCA4) [%] | EC50 (RERF-LC-A1 cell line) [nM] |
| --- | --- | --- | --- | --- |
| Cc1ncsc1-c1ccc([C@H](C)NC(=O)[C@@H]2C[C@@H](O)CN2C(=O)C(c2cc(OCCOc3ccc(-c4cnnc(-c5ccccc5O)c4)cc3)no2)C(C)C)cc1 (mixture of isomers) [Compound 42, (2S,4R)-4-hydroxy-1-(2-(3-(2-(4-(6-(2-hydroxyphenyl)pyridazin-4-yl)phenoxy)ethoxy)isoxazol-5-yl)-3-methylbutanoyl)-N-((S)-1-(4-(4-methylthiazol-5-yl)phenyl)ethyl)pyrrolidine-2-carboxamide] | – | 57 | – | > 100 |
| Cc1ncsc1-c1ccc([C@H](C)NC(=O)[C@@H]2C[C@@H](O)CN2C(=O)[C@@H](NC(=O)C(C)N2CCC(c3ccc(-c4cnnc(-c5ccccc5O)c4)cc3)CC2)C(C)(C)C)cc1 (stereo partly drawn) [Compound 14, (2S,4R)-4-hydroxy-1-((2S)-2-(2-(4-(4-(6-(2-hydroxyphenyl)pyridazin-4-yl)phenyl)piperidin-1-yl)propanamido)-3,3-dimethylbutanoyl)-N-((S)-1-(4-(4-methylthiazol-5-yl)phenyl)ethyl)pyrrolidine-2-carboxamide] | > 500 | – | – | < 100 |
| Cc1ncsc1-c1ccc([C@H](C)NC(=O)[C@@H]2C[C@@H](O)CN2C(=O)[C@@H](NC(=O)CN2CCC(c3ccc(-c4cnnc(-c5ccccc5O)c4)cc3F)CC2)C(C)(C)C)cc1 [Compound 15, (2S,4R)-1-((S)-2-(2-(4-(2-fluoro-4-(6-(2-hydroxyphenyl)pyridazin-4-yl)phenyl)piperidin-1-yl)acetamido)-3,3-dimethylbutanoyl)-4-hydroxy-N-((S)-1-(4-(4-methylthiazol-5-yl)phenyl)ethyl)pyrrolidine-2-carboxamide] | > 500 | 60 | 0 | – |
| Cc1ncsc1-c1ccc(CNC(=O)[C@@H]2C[C@@H](O)CN2C(=O)[C@@H](NC(=O)CN2CCC(c3ccc(-c4cnnc(-c5ccccc5O)c4)cc3)CC2)C(C)(C)C)cc1 [Compound 12, (2S,4R)-4-hydroxy-1-((S)-2-(2-(4-(4-(6-(2-hydroxyphenyl)pyridazin-4-yl)phenyl)piperidin-1-yl)acetamido)-3,3-dimethylbutanoyl)-N-(4-(4-methylthiazol-5-yl)benzyl)pyrrolidine-2-carboxamide] | > 500 | 75 | 0 | < 100 |
| Cc1ncsc1-c1ccc([C@H](C)NC(=O)[C@@H]2C[C@@H](O)CN2C(=O)[C@@H](NC(=O)CN2CC3CCC(C2)N3c2ccc(-c3cnnc(-c4ccccc4O)c3)cc2)C(C)(C)C)cc1 [Compound 24, (2S,4R)-4-hydroxy-1-((2S)-2-(2-(8-(4-(6-(2-hydroxyphenyl)pyridazin-4-yl)phenyl)-3,8-diazabicyclo[3.2.1]octan-3-yl)acetamido)-3,3-dimethylbutanoyl)-N-((S)-1-(4-(4-methylthiazol-5-yl)phenyl)ethyl)pyrrolidine-2-carboxamide] | < 250 | 96 | 15 | < 100 |
| Cc1ncsc1-c1ccc([C@H](C)NC(=O)[C@@H]2C[C@@H](O)CN2C(=O)[C@@H](NC(=O)CCCCNc2ccc(-c3cnnc(-c4ccccc4O)c3)cc2)C(C)(C)C)cc1 [Compound 36, (2S,4R)-4-hydroxy-1-((S)-2-(5-((4-(6-(2-hydroxyphenyl)pyridazin-4-yl)phenyl)amino)pentanamido)-3,3-dimethylbutanoyl)-N-((S)-1-(4-(4-methylthiazol-5-yl)phenyl)ethyl)pyrrolidine-2-carboxamide] | < 250 | 90 | 19 | – |

Further lines, with some results ahead:

| EC50 (SK-MEL-5 cells) [nM] | Percent degradation (at 100 nM) SMARCA2 (SMARCA2) [%] | Percent degradation (at 100 nM) SMARCA4 (SMARCA4) [%] | Compound | EC50 (RERF-LC-A1 cell line) [nM] |
| --- | --- | --- | --- | --- |
| 250 to 500 | 83 | 0 | Cc1ncsc1-c1ccc([C@H](C)NC(=O)[C@@H]2C[C@@H](O)CN2C(=O)[C@@H](NC(=O)CN2CC=C(c3ccc(-c4cnnc(-c5ccccc5O)c4)cc3)CC2)C(C)(C)C)cc1 [Compound 10, (2S,4R)-4-hydroxy-1-((S)-2-(2-(4-(4-(6-(2-hydroxyphenyl)pyridazin-4-yl)phenyl)-3,6-dihydropyridin-1(2H)-yl)acetamido)-3,3-dimethylbutanoyl)-N-((S)-1-(4-(4-methylthiazol-5-yl)phenyl)ethyl)pyrrolidine-2-carboxamide] | < 100 |
| < 250 | 94 | 0 | Cc1ncsc1-c1ccc([C@H](C)NC(=O)[C@@H]2C[C@@H](O)CN2C(=O)[C@@H](NC(=O)CN2CCN(c3ccc(-c4cnnc(-c5ccccc5O)c4)cc3)CC2)C(C)(C)C)cc1 [Compound 2, (2S,4R)-4-hydroxy-1-((S)-2-(2-(4-(4-(6-(2-hydroxyphenyl)pyridazin-4-yl)phenyl)piperazin-1-yl)acetamido)-3,3-dimethylbutanoyl)-N-((S)-1-(4-(4-methylthiazol-5-yl)phenyl)ethyl)pyrrolidine-2-carboxamide] | < 100 |
| < 250 | 91 | 0 | Cc1ncsc1-c1ccc([C@H](C)NC(=O)[C@@H]2C[C@@H](O)CN2C(=O)[C@@H](NC(=O)CN2CCC(c3ccc(-c4cnnc(-c5ccccc5O)c4)cc3)CC2)C(C)(C)C)cc1 [Compound 11, (2S,4R)-4-hydroxy-1-((S)-2-(2-(4-(4-(6-(2-hydroxyphenyl)pyridazin-4-yl)phenyl)piperidin-1-yl)acetamido)-3,3-dimethylbutanoyl)-N-((S)-1-(4-(4-methylthiazol-5-yl)phenyl)ethyl)pyrrolidine-2-carboxamide] | < 100 |
| 250 to 500 | 41 | 0 | Cc1ncsc1-c1ccc([C@H](C)NC(=O)[C@@H]2C[C@@H](O)CN2C(=O)[C@@H](NC(=O)CN2CCCC(c3ccc(-c4cnnc(-c5ccccc5O)c4)cc3)C2)C(C)(C)C)cc1 (stereo partly drawn) [Compound 20, (2S,4R)-4-hydroxy-1-((2S)-2-(2-(3-(4-(6-(2-hydroxyphenyl)pyridazin-4-yl)phenyl)piperidin-1-yl)acetamido)-3,3-dimethylbutanoyl)-N-((S)-1-(4-(4-methylthiazol-5-yl)phenyl)ethyl)pyrrolidine-2-carboxamide] | – |
| < 250 | 97 | 40 | Cc1ncsc1-c1ccc([C@H](C)NC(=O)[C@@H]2C[C@@H](O)CN2C(=O)[C@@H](NC(=O)CC2CCN(c3ccc(-c4cnnc(-c5ccccc5O)c4)cc3)CC2)C(C)(C)C)cc1 [Compound 6, (2S,4R)-4-hydroxy-1-((S)-2-(2-(1-(4-(6-(2-hydroxyphenyl)pyridazin-4-yl)phenyl)piperidin-4-yl)acetamido)-3,3-dimethylbutanoyl)-N-((S)-1-(4-(4-methylthiazol-5-yl)phenyl)ethyl)pyrrolidine-2-carboxamide] | < 100 |
| 250 to 500 | 38 | 0 | Cc1ncsc1-c1ccc([C@H](C)NC(=O)[C@@H]2C[C@@H](O)CN2C(=O)[C@@H](NC(=O)C(C)N2CCN(c3ccc(-c4cnnc(-c5ccccc5O)c4)cc3)CC2)C(C)(C)C)cc1 (stereo partly shown) [Compound 28] | – |
| < 250 | 79 | 0 | Cc1ncsc1-c1ccc([C@H](C)NC(=O)[C@@H]2C[C@@H](O)CN2C(=O)[C@@H](NC(=O)C(C)N2CCN(c3ccc(-c4cnnc(-c5ccccc5O)c4)cc3)CC2)C(C)(C)C)cc1 (single isomer, unassigned) [Compound 30] | – |
